Key:
[1] = system: angiogenesis; assay: Matrigel sponge in vivo angiogenesis assay; design: species or system C57B1 mice; conditions: for effect of anti IL-12 antibody on the anti-angiogenic activity: neutralizing anti mouse IL-12 antibody added to the matrigel mixture
Procedure: the assay was performed in C57B1 mice as described (3).
To verify whether IL-12 was a mediator of AST function, a neutralizing anti mouse IL-12 antibody (Peproteck Inc. London) and respectively an irrelevant anti phage 13 antibody (5 prime, 3 prime Inc. Boulder, Co. 150 ng/ml) were added to the mixture.
After animal sacrifice, pellets were fixed in 4% PAF and paraffin embedded; […] sections were stained with hematoxylin-eosin standard procedure.
FIG. 1-b: matrigel in vivo angiogenesis assay with AST. Columns show means and standard error of groups comprising six animals each. KS-conditioned medium (KSCM) is the stimulus (control).
FIG. 1-c: matrigel in vivo angiogenesis assay with peptides.
A combination of peptides and anti IL-12 Ab was added to the samples containing KSCM as indicated.
FIG. 2, a-h: standard ematoxylin-eosin staining of the matrigel pellets relative to experiments in FIG. 1-c.

[2] = system: polymorphonucleate (PMN); assay: Neutrophil (PMN) chemotaxis assay with IL-8 as chemoattractant; format: cell-based; conditions: CXCR1 and CXCR2-agonist and IL8 as chemoattractants
Procedure: The assay was conducted in 48 wells chambers (Costar Nucleopore, Milan, Italy) according to Falk (4). The lower compartment of each chamber was filled with 27 μL of chemoattractant (IL-8, 50 ng/ml) in RPMI 0.1% BSA (SFM). Serum-free medium (SFM) was used for spontaneous migration without stimulus. The upper compartment was filled with 50 μL of polymorphonucleate (PMN) suspension in SFM (3×10^6 cells/ml); each experimental point was performed in sextuplicate. Chambers were incubated at 37° C. in 5% CO2 in humidified atmosphere for 45 minutes. Filters were removed and the cells fixed in 100% ethanol and stained with toluidine blue. The migrated cells were quantified by scanning of the filter surface and by densitometry of blue staining by NIH Imaging Analysis Software.
FIG. 3: PMN chemotaxis. Densitometry of migrated cells. IL-8 represents the stimulus in each sample, to which either AST or relevant peptides are added.

[3] = system: KS-imm cells; assay: Xenotransplant of Kaposi sarcoma (KS-imm) tumor cells in nude mice; format: in vivo, CD1 nude mice; conditions: single administration three days before cell injection
Procedure: CD1 nude mice were injected in the flank with 5 million KS-imm cells and split in four groups: one was injected peri-tumorally with 2.5 μg AST (Calbiochem, La Jolla, Calif.) in 100 μl PBS-BSA, a control group was injected with vehicle alone, a third group with 2.5 mg of peptide SEQ ID NO:1 or a control peptide. Mice were sacrificed at day 31.

Substance	effect of anti IL-12 antibody on the anti-angiogenic activity [1]	anti-angiogenic activity in matrigel sponges (hemoglobin quantification) ([1]; KS-conditioned medium (KSCM) as stimulus, compared with angiostatin)	angiogenesis inhibition by hematoxylin-eosin stain of matrigel pellets ([1]; histology of matrigel sponges)	local cellular infiltration in matrigel pellets ([1]; histology of matrigel sponges)	activity in neutrophil chemotaxis assay (inhibition of migration) [2]	tumor growth [3]
angiostatin	inhibited by and antibody anti IL-12					
HNRTPENFPCKNL (listed as Homo sapiens) [peptide SEQ ID NO:1, 13mer from Kringle 3 of angiostatin, starting from position 307 of human plasminogen]	inhibited by and antibody anti IL-12	more active than angiostatin	potent angiogensis inhibition	drastically reduced	significantly higher compared to other angiostatin peptides	able to diminish tumor growth with respect to angiostatin

— US20110144022A1, “Anti-Angiogenic Peptide” (ISTITUTO NAZIONALE PER LA RICERCA SUL CANCRO, priority 2004, published 2011)
